# Data: publication PMC12094020, “Elucidation of novel turnagainolides and their biosynthetic gene cluster in Bacillus subtilis” (Applied and Environmental Microbiology, 2025)
# “Also recorded” adds a separate entry of the source.
# How the values were obtained:
# S. aureus biofilm = experiment: biofilm inhibition experiment (crystal violet); assay type: cell-based; conditions: overnight 37°C, TSB, OD570
# Method: S. aureus was cultured overnight in 3 mL of TSB medium. The next morning, the culture was diluted to an OD570 of 0.5 with fresh TSB medium and then further diluted 1,000-fold to achieve a final concentration of 1 × 10^6 CFU/mL. Aliquots of 100 µL of the diluted culture were transferred to individual wells of a 96-well plate. Test compounds were added to the first well of each row at a concentration of 800 µg/mL, followed by twofold serial dilutions across the row. The plate was incubated overnight at 37°C. The medium was subsequently discarded, and the wells were washed three times with PBS (KH2PO4 0.27 g, Na2HPO4 1.42 g, NaCl 8 g, KCl 0.2 g in 1 L deionized water, pH 7.4). Next, 200 µL of methanol was added to each well to fix the biofilm, and the plate was incubated for 15 minutes. The methanol was then removed, and the wells were stained with 0.1% crystal violet for 5 minutes. Excess dye was washed off, and the plate was air-dried. To dissolve the bound stain, 200 µL of glacial acetic acid was added to each well, and the plate was shaken for 20 minutes. The absorbance at OD570 was measured using a microplate reader (Thermo Fisher Scientific, Varioskan LUX).
# [1] = test system: quorum-sensing in Staphylococcus aureus; conditions: ref 5 (Igarashi et al.); read-out: quorum-sensing inhibition in Staphylococcus aureus, IC50; cited from earlier work
# Excerpt: (§1) Turnagainolides are a distinctive family of cyclic depsipeptides containing one (E)-3-hydroxy-5-phenylpent-4-enoic acid (Hppa) and four proteinogenic amino acids (Fig. S1). As the first member of this family, compound EGM-556 was discovered from the marine fungus Microascus sp. EGM-556 following the introduction of the histone deacetylase inhibitor suberoylanilide hydroxamic acid to activate a silent biosynthetic gene cluster. However, its stereochemistry was only partially resolved, and no bioactivity was reported ([3]). Subsequently, turnagainolides A and B were identified from Bacillus sp., ...
# SHIP1 enzyme = conditions: in vitro; cited from earlier work
# Excerpt: Turnagainolides are a distinctive family of cyclic depsipeptides containing one (E)-3-hydroxy-5-phenylpent-4-enoic acid (Hppa) and four proteinogenic amino acids (Fig. S1). As the first member of this family, compound EGM-556 was discovered from the marine fungus Microascus sp. EGM-556 following the introduction of the histone deacetylase inhibitor suberoylanilide hydroxamic acid to activate a silent biosynthetic gene cluster. However, its stereochemistry was only partially resolved, and no bioactivity was reported ([3]).
# Candida albicans = conditions: cited from earlier work
# Excerpt: as §1
# Escherichia coli = conditions: cited from earlier work
# Excerpt: as §1
# S. aureus = conditions: cited from earlier work
# Excerpt: as §1
# bacteria = test system: bacteria; set-up: method as in doi:10.1016/j.cclet.2016.03.018; conditions: compared among congeners; cited from earlier work
Substance,IC50 [1],activation of SHIP1 enzyme (SHIP1 enzyme),anti-biofilm activity at concentrations above 100 µg/mL (S. aureus biofilm),also measured
Turnagainolide A [Compound 1],800 nM,only turnagainolide B activates SHIP1,–,anti-biofilm activity at 200 µg/mL (S. aureus biofilm; 200 µg/mL): no activity; anti-biofilm activity at 400 µg/mL (S. aureus biofilm; 400 µg/mL): weak inhibitory activity
Turnagainolide B [Compound 2],–,activates SHIP1; also recorded: activator of the SHIP1 enzyme,slightly stronger inhibition; also recorded: weak inhibition,–
Turnagainolide D [Compound 3],–,–,slightly stronger inhibition; also recorded: weak inhibition,–
arthroamide [reference compound],300 nM,–,–,–
turnagainolide C,–,–,–,anti-microbial activity against Candida albicans (Candida albicans): anti-microbial activity; anti-microbial activity against Escherichia coli (Escherichia coli): anti-microbial activity; anti-microbial activity against S. aureus (S. aureus): anti-microbial activity; antibacterial activity (bacteria): only congener that exhibits antibacterial activity
